The source of these data is ChEMBL document CHEMBL5370570, “HIV-1 Integrase Inhibitor, Dihydroobionin B, and the Investigation of Its Extraordinary Specific Rotation” (J Nat Prod, 2023).

Active and inactive are the calls of the source. The rule behind the calls is not given here.

As a reminder, the IC50 is the concentration needed to halve the response being measured. Higher therefore signals weaker potency.

The test system of data set [1] is Bipolaris oryzae. Kind of data set: Antifungal activity against Bipolaris oryzae at 50 ug assessed as zone of inhibition incubated after 5 days at 25 degreeC by paper disk method. Type of data set: functional. The following applies: for zone of inhibition at 50 µg/disc: 120 h, time 5 day, read-out: IZ.
Data set [2] deals with Human immunodeficiency virus type 1 integrase (Human immunodeficiency virus 1, UniProt Q7ZJM1). Briefly: Inhibition of HIV-1 integrase expressed in HEK293T co-transfected with CS-II Luci vector incubated for 48 hrs by Bright-Glo luciferase assay. Type of data set: cell-based.
Human immunodeficiency virus type 1 integrase, sequence (Q7ZJM1 whole entry): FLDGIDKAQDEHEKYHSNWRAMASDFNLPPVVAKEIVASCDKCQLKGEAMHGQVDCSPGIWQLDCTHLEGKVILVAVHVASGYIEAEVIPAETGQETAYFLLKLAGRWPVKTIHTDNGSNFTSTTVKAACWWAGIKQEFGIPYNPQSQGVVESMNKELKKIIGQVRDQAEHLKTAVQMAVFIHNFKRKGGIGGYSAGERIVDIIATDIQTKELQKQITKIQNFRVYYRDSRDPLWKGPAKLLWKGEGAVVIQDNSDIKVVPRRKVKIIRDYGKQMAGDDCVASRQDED
Data set [3] is described as follows: Cytotoxicity against human HEK293T cells assessed as reduction in cell viability incubated for 48 hrs by WST assay. Type of data set: toxicity, cell-based, HEK-293T. To be noted: read-out: LC50.

In the case of `CCCC/C=C/c1c(OC)cc(=O)oc1C`, the zone of inhibition at 50 µg/disc in data set [1] was 12 mm. The compound further came in with an IC50 in data set [2] of 250 µM.

For `CCCCCCc1c(OC)cc(=O)oc1C`, the zone of inhibition at 50 µg/disc in data set [1] amounted to 12 mm. Besides, 15 µM corresponded to half-maximal inhibition in data set [2] (IC50).

Consider `CCCCCCC[C@H]1Cc2cc3c(c(O)c2CO1)C(=O)C(=O)C(OC)=C3`, for which the “inhibition zone (IZ)” value in data set [1] (dose 50.0 µg, time 5.0 day) is “inactive”. The same compound registered an IC50 in data set [2] of 0.44 µM. In data set [3], the CC50 at 48 h was more than 250 µM.

Consider `CCCCCc1cc(O)c(C)c(O)c1C=O`, for which the zone of inhibition at 50 µg/disc in data set [1] stood at 12 mm. This compound showed an IC50 in data set [2] of 13 µM.
